Experimental data published in the NIST ThermoML archive (doi:10.1021/je025621h).
Numbers after ± are expanded uncertainties.

Conditions: Liquid

For `CCO` [ethanol], the “vapor or sublimation pressure” value (312.17 K) was 17 ± 0.037 kPa, the “vapor or sublimation pressure” value (313.43 K) was 18.15 ± 0.038 kPa and the “vapor or sublimation pressure” value (318.15 K) was 23.07 ± 0.04 kPa. For the same molecule, the “vapor or sublimation pressure” value (318.24 K) was 23.18 ± 0.04 kPa, the “vapor or sublimation pressure” value (320.87 K) was 26.39 ± 0.041 kPa and the “vapor or sublimation pressure” value (323.15 K) was 29.48 ± 0.043 kPa. For the same molecule, the “vapor or sublimation pressure” value (326.13 K) was 34 ± 0.044 kPa, the “vapor or sublimation pressure” value (326.16 K) was 34.02 ± 0.044 kPa and the “vapor or sublimation pressure” value (328.14 K) was 37.34 ± 0.046 kPa. For the same molecule, the “vapor or sublimation pressure” value (328.17 K) was 37.39 ± 0.046 kPa, the “vapor or sublimation pressure” value (330.65 K) was 41.9 ± 0.048 kPa and the “vapor or sublimation pressure” value (333.16 K) was 46.94 ± 0.05 kPa. For the same molecule, the “vapor or sublimation pressure” value (336.1 K) was 53.47 ± 0.053 kPa, the “vapor or sublimation pressure” value (336.14 K) was 53.56 ± 0.053 kPa and the “vapor or sublimation pressure” value (338.16 K) was 58.48 ± 0.056 kPa. The “vapor or sublimation pressure” value (343.15 K) was 72.3 ± 0.061 kPa, the “vapor or sublimation pressure” value (348.14 K) was 88.77 ± 0.068 kPa and the “vapor or sublimation pressure” value (351.38 K) was 101.11 ± 0.069 kPa. The “vapor or sublimation pressure” value (351.42 K) was 101.23 ± 0.069 kPa.

With `O` [water] the “vapor or sublimation pressure” value (327.13 K) was 15 ± 0.036 kPa, the “vapor or sublimation pressure” value (328.16 K) was 15.75 ± 0.037 kPa and the “vapor or sublimation pressure” value (330.78 K) was 17.85 ± 0.037 kPa. For the same molecule, the “vapor or sublimation pressure” value (333.15 K) was 19.94 ± 0.038 kPa, the “vapor or sublimation pressure” value (335.82 K) was 22.53 ± 0.039 kPa and the “vapor or sublimation pressure” value (338.15 K) was 25.02 ± 0.04 kPa. The “vapor or sublimation pressure” value (340.67 K) was 27.98 ± 0.042 kPa, the “vapor or sublimation pressure” value (343.16 K) was 31.21 ± 0.043 kPa and the “vapor or sublimation pressure” value (346.13 K) was 35.42 ± 0.044 kPa. For the same molecule, the “vapor or sublimation pressure” value (348.14 K) was 38.55 ± 0.046 kPa, the “vapor or sublimation pressure” value (353.14 K) was 47.36 ± 0.05 kPa and the “vapor or sublimation pressure” value (358.14 K) was 57.79 ± 0.053 kPa.

With `C1CCCCC1` [cyclohexane] the “vapor or sublimation pressure” value (302.92 K) was 16.06 ± 0.037 kPa, the “vapor or sublimation pressure” value (304.19 K) was 16.95 ± 0.037 kPa and the “vapor or sublimation pressure” value (306.91 K) was 19.05 ± 0.038 kPa. The “vapor or sublimation pressure” value (308.27 K) was 20.16 ± 0.038 kPa, the “vapor or sublimation pressure” value (309.9 K) was 21.56 ± 0.039 kPa and the “vapor or sublimation pressure” value (313.16 K) was 24.61 ± 0.04 kPa. The “vapor or sublimation pressure” value (318.19 K) was 30.03 ± 0.042 kPa, the “vapor or sublimation pressure” value (323.14 K) was 36.23 ± 0.044 kPa and the “vapor or sublimation pressure” value (328.16 K) was 43.51 ± 0.047 kPa. The “vapor or sublimation pressure” value (331.9 K) was 49.68 ± 0.05 kPa, the “vapor or sublimation pressure” value (333.16 K) was 51.9 ± 0.051 kPa and the “vapor or sublimation pressure” value (333.17 K) was 51.9 ± 0.051 kPa. For the same molecule, the “vapor or sublimation pressure” value (338.16 K) was 61.56 ± 0.054 kPa, the “vapor or sublimation pressure” value (343.16 K) was 72.53 ± 0.058 kPa and the “vapor or sublimation pressure” value (345.42 K) was 77.94 ± 0.061 kPa. For the same molecule, the “vapor or sublimation pressure” value (348.05 K) was 84.73 ± 0.063 kPa.
